Reference: PubChem BioAssay AID2060907 (Molecular Pharmacology Branch, DTP, NCI, 2025)

Tested on: 388556-164-R-J1-PDC complex spheroid viability
Experiment: Anticancer human tumor 388556-164-R-J1-PDC patient-derived colon adenocarcinoma cell line growth inhibition [RAS]
Conditions: for viability, T/C: stronger effect = lower value
How it was run: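 Tumour cells grown as complex spheroids with HUVEC endothelial cells and mesenchymal stem cells, treated with RAS pathway inhibitor combinations. Each agent spans half-log steps from near clinical Cmax, or 10 microM where Cmax is unknown.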

[1] = curve of first compound, second compound 0.0316 µM
[2] = curve of first compound, second compound 0.1 µM
[3] = curve of first compound, second compound 0.316 µM
[4] = curve of first compound, second compound 1 µM
[5] = curve of first compound, second compound 3.16 µM
[6] = curve of first compound, second compound 10 µM
[7] = second compound 0.0316 µM, first compound 0.0316 µM
[8] = second compound 0.0316 µM, first compound 0.1 µM
[9] = second compound 0.0316 µM, first compound 0.316 µM
[10] = second compound 0.0316 µM, first compound 1 µM
[11] = second compound 0.1 µM, first compound 0.0316 µM
[12] = second compound 0.1 µM, first compound 0.1 µM
[13] = second compound 0.1 µM, first compound 0.316 µM
[14] = second compound 0.1 µM, first compound 1 µM
[15] = second compound 0.316 µM, first compound 0.0316 µM
[16] = second compound 0.316 µM, first compound 0.1 µM
[17] = second compound 0.316 µM, first compound 0.316 µM
[18] = second compound 0.316 µM, first compound 1 µM
[19] = second compound 1 µM, first compound 0.0316 µM
[20] = second compound 1 µM, first compound 0.1 µM
[21] = second compound 1 µM, first compound 0.316 µM
[22] = second compound 1 µM, first compound 1 µM
[23] = second compound 3.16 µM, first compound 0.0316 µM
[24] = second compound 3.16 µM, first compound 0.1 µM
[25] = second compound 3.16 µM, first compound 0.316 µM
[26] = second compound 3.16 µM, first compound 1 µM
[27] = second compound 10 µM, first compound 0.0316 µM
[28] = second compound 10 µM, first compound 0.1 µM
[29] = second compound 10 µM, first compound 0.316 µM
[30] = second compound 10 µM, first compound 1 µM
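Also: spheroids exposed to compound for 7 days before readout.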
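For viability, T/C in this document: 100% = DMSO vehicle control luminescence.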

**Q.** How did the viability, T/C (compound 0.00316 µM) turn out when `Nc1ccn(C2OC(CO)C(O)C2(F)F)c(=O)n1` (stereo unspecified) was run?
**A.** 97.9% [middle of 4 runs]

**Q.** What about the viability, T/C (compound 0.01 µM) of the same molecule?
**A.** 93.1% [middle of 4 runs]

**Q.** What about the viability, T/C (compound 0.0316 µM) of the same molecule?
**A.** 81.8% [middle of 4 runs]

**Q.** And the viability, T/C (compound 0.1 µM)?
**A.** 79% [middle of 4 runs]

**Q.** What about the viability, T/C (compound 0.316 µM) of the same molecule?
**A.** 74.7% [middle of 4 runs]

**Q.** And the viability, T/C (compound 1 µM)?
**A.** 70.2% [middle of 4 runs]

**Q.** What about the IC50 (curve of compound) of the same molecule?
**A.** > 1000 nM

**Q.** What does the source list for `O=C(c1ccc(F)c(F)c1Nc1ccc(I)cc1F)N1CC(O)([C@@H]2CCCCN2)C1` + C#Cc1c(F)ccc2cc(O)cc(-c3ncc4c(N5CC6CCC(C5)N6)nc(OCC56CCCN5CC(F)C6)nc4c3F)c12?
**A.** IC50 [1]: 170 nM; IC50 [2]: 196 nM; IC50 [3]: 135 nM; IC50 [4]: 104 nM; IC50 [5]: 84.8 nM; IC50 [6]: 24.1 nM; viability, T/C (second compound 0.0316 µM, first compound 0.00316 µM): 100%; viability, T/C (second compound 0.0316 µM, first compound 0.01 µM): 95.1%; viability, T/C [7]: 79%; viability, T/C [8]: 61.6%; viability, T/C [9]: 37.2%; viability, T/C [10]: 22.1%; viability, T/C (second compound 0.1 µM, first compound 0.00316 µM): 99.7%; viability, T/C (second compound 0.1 µM, first compound 0.01 µM): 103%; viability, T/C [11]: 86%; viability, T/C [12]: 66.1%; viability, T/C [13]: 39.2%; viability, T/C [14]: 22.2%; viability, T/C (second compound 0.316 µM, first compound 0.00316 µM): 100%; viability, T/C (second compound 0.316 µM, first compound 0.01 µM): 99.4%; viability, T/C [15]: 64.3%; viability, T/C [16]: 59.3%; viability, T/C [17]: 35.9%; viability, T/C [18]: 17.2%; viability, T/C (second compound 1 µM, first compound 0.00316 µM): 89.8%; viability, T/C (second compound 1 µM, first compound 0.01 µM): 81.8%; viability, T/C [19]: 55.4%; viability, T/C [20]: 60.5%; viability, T/C [21]: 31.6%; viability, T/C [22]: 16.9%; viability, T/C (second compound 3.16 µM, first compound 0.00316 µM): 79%; viability, T/C (second compound 3.16 µM, first compound 0.01 µM): 62.9%; viability, T/C [23]: 61.8%; viability, T/C [24]: 51.5%; viability, T/C [25]: 32.2%; viability, T/C [26]: 15.7%; viability, T/C (second compound 10 µM, first compound 0.00316 µM): 56.7%; viability, T/C (second compound 10 µM, first compound 0.01 µM): 62.1%; viability, T/C [27]: 45.3%; viability, T/C [28]: 31%; viability, T/C [29]: 19.1%; viability, T/C [30]: 17.1%

**Q.** With `NC1c2ccccc2OC12CCN(c1cnc3c(N4CCCc5ncccc54)n[nH]c3n1)CC2` (stereo unspecified) + C#Cc1c(F)ccc2cc(O)cc(-c3ncc4c(N5CC6CCC(C5)N6)nc(OCC56CCCN5CC(F)C6)nc4c3F)c12 as the molecule, how does the IC50 [1] read?
**A.** 363 nM

**Q.** And the IC50 [2]?
**A.** 149 nM

**Q.** What about the IC50 [3] of the same molecule?
**A.** 157 nM

**Q.** And the IC50 [4]?
**A.** 84.6 nM

**Q.** What about the IC50 [5] of the same molecule?
**A.** < 31.6 nM

**Q.** What about the IC50 [6] of the same molecule?
**A.** < 31.6 nM

**Q.** What about the viability, T/C [7] of the same molecule?
**A.** 58.8%

**Q.** What about the viability, T/C [8] of the same molecule?
**A.** 59.1%

**Q.** And the viability, T/C [9]?
**A.** 50.1%

**Q.** What about the viability, T/C [10] of the same molecule?
**A.** 41.8%

**Q.** What about the viability, T/C (second compound 0.0316 µM, first compound 3.16 µM) of the same molecule?
**A.** 35.2%

**Q.** What about the viability, T/C (second compound 0.0316 µM, first compound 10 µM) of the same molecule?
**A.** 31.3%

**Q.** And the viability, T/C [11]?
**A.** 65.7%

**Q.** And the viability, T/C [12]?
**A.** 55.6%

**Q.** And the viability, T/C [13]?
**A.** 43.8%

**Q.** What about the viability, T/C [14] of the same molecule?
**A.** 32.5%

**Q.** What about the viability, T/C (second compound 0.1 µM, first compound 3.16 µM) of the same molecule?
**A.** 36.8%

**Q.** And the viability, T/C (second compound 0.1 µM, first compound 10 µM)?
**A.** 28.4%

**Q.** What about the viability, T/C [15] of the same molecule?
**A.** 63.6%

**Q.** And the viability, T/C [16]?
**A.** 58.2%

**Q.** What about the viability, T/C [17] of the same molecule?
**A.** 38.2%

**Q.** And the viability, T/C [18]?
**A.** 33%

**Q.** And the viability, T/C (second compound 0.316 µM, first compound 3.16 µM)?
**A.** 26.6%

**Q.** What about the viability, T/C (second compound 0.316 µM, first compound 10 µM) of the same molecule?
**A.** 21%

**Q.** What about the viability, T/C [19] of the same molecule?
**A.** 54.3%

**Q.** And the viability, T/C [20]?
**A.** 49.7%

**Q.** And the viability, T/C [21]?
**A.** 32%

**Q.** What about the viability, T/C [22] of the same molecule?
**A.** 27.2%

**Q.** And the viability, T/C (second compound 1 µM, first compound 3.16 µM)?
**A.** 27.7%

**Q.** What about the viability, T/C (second compound 1 µM, first compound 10 µM) of the same molecule?
**A.** 20.2%

**Q.** What about the viability, T/C [23] of the same molecule?
**A.** 51.2%

**Q.** What about the viability, T/C [24] of the same molecule?
**A.** 35.9%

**Q.** What about the viability, T/C [25] of the same molecule?
**A.** 35%

**Q.** What about the viability, T/C [26] of the same molecule?
**A.** 29.3%

**Q.** And the viability, T/C (second compound 3.16 µM, first compound 3.16 µM)?
**A.** 26.6%

**Q.** What about the viability, T/C (second compound 3.16 µM, first compound 10 µM) of the same molecule?
**A.** 18.8%

**Q.** What about the viability, T/C [27] of the same molecule?
**A.** 39%

**Q.** And the viability, T/C [28]?
**A.** 31%

**Q.** What about the viability, T/C [29] of the same molecule?
**A.** 24.1%

**Q.** What about the viability, T/C [30] of the same molecule?
**A.** 23.9%

**Q.** And the viability, T/C (second compound 10 µM, first compound 3.16 µM)?
**A.** 18.6%

**Q.** And the viability, T/C (second compound 10 µM, first compound 10 µM)?
**A.** 16.9%
